Measured values as given in paper PMC7044277 (Nature Communications, 2020).
Several values for one entry are separate records, joined by “and”; a condition that tells them apart may be missing. Identical values can stand only once.

How the values were obtained:
DRD3 = DRD3 (Homo sapiens, UniProt P35462); test: β-arrestin2 recruitment (Tango); assay type: cell-based
[1] = system: serotonin receptor (subtype not given; reference agonist serotonin); test: β-arrestin2 recruitment (Tango), agonist activity, source data Fig_S10l; assay type: cell-based, human; details: drug alone
5HT1D = 5HT1D (Homo sapiens, UniProt P28221); test: β-arrestin2 recruitment (Tango); assay type: cell-based; details: agonist activity only at high concentrations
5HT1D, sequence (P28221 whole entry): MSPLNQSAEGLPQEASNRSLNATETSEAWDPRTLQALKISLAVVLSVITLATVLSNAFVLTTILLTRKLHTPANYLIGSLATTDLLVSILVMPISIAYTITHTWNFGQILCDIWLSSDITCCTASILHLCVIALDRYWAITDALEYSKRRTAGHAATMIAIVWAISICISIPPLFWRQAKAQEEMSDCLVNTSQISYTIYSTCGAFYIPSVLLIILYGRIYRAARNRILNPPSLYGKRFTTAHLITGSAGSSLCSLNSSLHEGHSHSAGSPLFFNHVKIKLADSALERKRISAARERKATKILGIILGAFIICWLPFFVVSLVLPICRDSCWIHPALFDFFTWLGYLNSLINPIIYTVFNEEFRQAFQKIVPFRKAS

[2] = target: DRD2 (D2 long receptor) wild-type (Homo sapiens, UniProt P14416); test: Radioligand competition binding, [3H]-N-methylspiperone, HEK293T membranes; details: DRD2; [3H]-methylspiperone (0.8-1.0 nM); read-out: Ki
DRD2 (D2 long receptor) wild-type, sequence (P14416 whole entry): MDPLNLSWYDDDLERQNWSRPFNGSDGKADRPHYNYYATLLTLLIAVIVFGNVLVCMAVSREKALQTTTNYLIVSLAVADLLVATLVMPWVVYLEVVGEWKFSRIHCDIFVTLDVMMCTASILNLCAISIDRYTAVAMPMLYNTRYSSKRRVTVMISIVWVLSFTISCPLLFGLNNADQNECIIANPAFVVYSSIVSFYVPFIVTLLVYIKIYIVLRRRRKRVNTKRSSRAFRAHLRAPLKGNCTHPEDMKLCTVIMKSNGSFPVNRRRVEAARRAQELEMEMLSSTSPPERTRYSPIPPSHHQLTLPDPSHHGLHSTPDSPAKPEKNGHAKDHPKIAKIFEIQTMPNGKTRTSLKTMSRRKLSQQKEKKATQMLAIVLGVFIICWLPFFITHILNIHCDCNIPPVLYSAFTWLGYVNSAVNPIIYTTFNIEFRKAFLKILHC

DRD2 F1103.28L = target: T1, DRD2 F1103.28L (Homo sapiens, UniProt P14416, F110L); test: Gαi/o-mediated cAMP inhibition (GloSensor), mutant; assay type: cell-based
T1 construct: expressed in transfected cells; host or cells: HEK293T (ATCC CRL-11268)
T1 sequence (P14416 whole entry F110L): as the sequence (P14416 whole entry) above, with F110L counted along it

DRD2 (D2 long receptor) = DRD2 (D2 long receptor) (Homo sapiens, UniProt P14416); test: Gαi/o-mediated cAMP inhibition (GloSensor split-luciferase cAMP reporter), HEK293T; assay type: cell-based; details: DRD2;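 also: compounds applied 15 min at room temperature, then luciferin plus 400 nM isoproterenol to raise cAMP through endogenous β2-adrenergic receptors, luminescence read 15 min later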
DRD2 (D2 long receptor), sequence (P14416 whole entry): as the sequence (P14416 whole entry) above

5HT2A = 5HT2A (Homo sapiens, UniProt P28223); test: β-arrestin2 recruitment (Tango); assay type: cell-based; details: single replicate values
5HT2A, sequence (P28223 whole entry): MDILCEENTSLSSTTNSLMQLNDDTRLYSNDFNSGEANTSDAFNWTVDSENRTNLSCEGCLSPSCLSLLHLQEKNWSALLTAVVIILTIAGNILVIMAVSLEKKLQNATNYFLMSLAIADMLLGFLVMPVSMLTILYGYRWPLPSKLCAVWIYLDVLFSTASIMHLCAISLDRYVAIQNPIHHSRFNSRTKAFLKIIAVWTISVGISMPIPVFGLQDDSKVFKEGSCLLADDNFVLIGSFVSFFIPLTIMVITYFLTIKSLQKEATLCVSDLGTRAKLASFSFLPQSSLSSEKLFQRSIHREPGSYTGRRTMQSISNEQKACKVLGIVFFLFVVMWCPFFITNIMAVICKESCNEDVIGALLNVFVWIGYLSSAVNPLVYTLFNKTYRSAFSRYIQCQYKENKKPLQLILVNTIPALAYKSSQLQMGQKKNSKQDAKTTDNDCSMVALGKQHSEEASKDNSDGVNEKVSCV

DRD3, sequence (P35462 whole entry): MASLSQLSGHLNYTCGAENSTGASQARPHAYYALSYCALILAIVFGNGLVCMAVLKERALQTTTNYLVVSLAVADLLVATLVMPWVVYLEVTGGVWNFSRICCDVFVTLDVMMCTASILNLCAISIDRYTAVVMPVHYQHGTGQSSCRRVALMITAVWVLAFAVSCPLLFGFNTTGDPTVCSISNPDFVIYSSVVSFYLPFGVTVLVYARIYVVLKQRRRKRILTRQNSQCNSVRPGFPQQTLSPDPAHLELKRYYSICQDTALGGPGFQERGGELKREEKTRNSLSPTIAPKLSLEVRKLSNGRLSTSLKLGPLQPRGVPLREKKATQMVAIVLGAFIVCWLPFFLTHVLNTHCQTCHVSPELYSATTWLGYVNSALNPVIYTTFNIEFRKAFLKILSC

CCOc1cccc2cc([C@@H](C)NCC3(O)CCCCC3)oc12 [O4RE6]
β-arrestin2 recruitment agonist activity (DRD3; DRD3, Tango): partial agonist | EC50 (DRD3; DRD3, Tango, read-out: EC50 ± SEM): 808 ± 22 nM | β-arrestin2 recruitment response at DRD3 (source data, replicate values) (DRD3; Log[Drug] -5): 4.576 and 3.7 and 3.62 and 3.736 and 5.471 and 3.308 and 2.328 | β-arrestin2 recruitment response at DRD3 (source data, replicate values) (DRD3; Log[Drug] -5.52): 3.058 and 2.935 and 3.394 and 3.834 and 3.658 and 1.004 and 1.077 | β-arrestin2 recruitment response at DRD3 (source data, replicate values) (DRD3; Log[Drug] -6): 2.938 and 3.023 and 2.856 and 3.025 and 3.1562 and 0.3638 and 0.509 | β-arrestin2 recruitment response at DRD3 (source data, replicate values) (DRD3; Log[Drug] -6.52): 3.396 and 2.937 and 2.899 and 3.295 and 4.17 and 0.7903 and 0.1505 | β-arrestin2 recruitment response at DRD3 (source data, replicate values) (DRD3; Log[Drug] -7): 2.933 and 3.147 and 2.775 and 2.952 and 4.646 and 0.5125 and 2.883 | β-arrestin2 recruitment response at DRD3 (source data, replicate values) (DRD3; Log[Drug] -7.52): 3.0214 and 3.313 and 2.803 and 3.9395 and 2.8785 and -0.1416 and 0.9462 | β-arrestin2 recruitment response at DRD3 (source data, replicate values) (DRD3; Log[Drug] -8): 3.394 and 3.834 and 3.658 and 3.117 and 3.387 and 1.887 and -0.07348 | β-arrestin2 recruitment response at DRD3 (source data, replicate values) (DRD3; Log[Drug] -8.52): 2.856 and 3.025 and 3.1562 and 3.299 and 3.446 and 1.2903 and 3.595 | β-arrestin2 recruitment response at DRD3 (source data, replicate values) (DRD3; Log[Drug] -9): 2.899 and 3.295 and 4.17 and 2.956 and 3.124 and 0.2993 and 1.159 | β-arrestin2 recruitment response at DRD3 (source data, replicate values) (DRD3; Log[Drug] -9.52): 2.775 and 2.952 and 4.646 and 3.025 and 2.94 and 0.3512 and -0.2025 | β-arrestin2 recruitment response at DRD3 (source data, replicate values) (DRD3; Log[Drug] -10): 2.803 and 3.9395 and 2.8785 and 2.928 and 3.403 and 1.077 and 2.238 | β-arrestin2 recruitment response at DRD3 (source data, replicate values) (DRD3; Log[Drug] -10.52): 5.884 and 3.155 and 4.6156 and 3.056 and 2.943 and 1.1541 and 0.8548 | β-arrestin2 recruitment response at DRD3 (source data, replicate values) (DRD3; Log[Drug] -11): 3.18 and 2.961 and 3.126 and 2.927 and 2.942 and 0.5878 and 2.511 | β-arrestin2 recruitment response at DRD3 (source data, replicate values) (DRD3; Log[Drug] -11.52): 2.6928 and 2.862 and 2.962 and 3.132 and 3.725 and -0.276 and 0.7993 | Emax (DRD3; read-out: Emax relative to quinpirole response, DRD3, Tango): 21.4% | response, Fig_S10l, replicate values ([1]; Log[Drug] -6.52): -3.85 | response, Fig_S10l, replicate values ([1]; Log[Drug] -7): -18.1455 and -1.053 and 5.44 and -6.097 and -0.7764 and -1.627 and 21.5386 and -8.446 and -23.0116 | response, Fig_S10l, replicate values ([1]; Log[Drug] -7.52): 10.4314 and -7.0535 and -12.5511 and -5.4086 and -2.507 and -5.8801 and -14.9973 and 5.012 and -22.748 | response, Fig_S10l, replicate values ([1]; Log[Drug] -8): -3.494 and -0.9897 and -1.101 and -6.133 and 9.37 and -6.103 and -6.764 and -19.0522 and -18.9699 | response, Fig_S10l, replicate values ([1]; Log[Drug] -8.52): -14.6079 and -9.137 and 0.1161 and -2.858 and 0.4788 and -6.718 and 5.642 and 9.781 and -19.7014 | response, Fig_S10l, replicate values ([1]; Log[Drug] -9): -7.429 and -0.8033 and 2.514 and -1.371 and -2.511 and 6.172 and -12.5406 and 13.3677 and 9.079 | response, Fig_S10l, replicate values ([1]; Log[Drug] -9.52): -7.024 and -4.6241 and 4.382 and 5.183 and -6.777 and -3.91 and -13.0464 and 1.094 and -1.351 | response, Fig_S10l, replicate values ([1]; Log[Drug] -10): -1.517 and -3.218 and -6.7099 and 1.544 and 10.647 and -1.892 and 3.1372 and 12.1979 and 15.1176 | response, Fig_S10l, replicate values ([1]; Log[Drug] -10.52): 7.131 and -7.271 and -11.3727 and 2.195 and -7.95 and -8.5307 and 3.862 and 0.6607 and 18.5102 | response, Fig_S10l, replicate values ([1]; Log[Drug] -11): 7.402 and 9.101 and -6.117 and -2.283 and 7.1162 and 16.1339 and -5.988 and 21.1185 and -1.691 | response, Fig_S10l, replicate values ([1]; Log[Drug] -11.52): 20.0426 and 4.341 and -34.8779 and 9.958 and -2.256 and -5.643 and 0.02142 and 3.842 and -14.699 | response, Fig_S10l, replicate values ([1]; Log[Drug] -12): 1.452 and 8.392 and -9.8386 and -3.912 and 6.115 and -2.202 and -0.8107 and 10.4431 and -9.6291 | concentration at which the receptor is activated (5HT1D): over 1 μM | Ki [2]: 690 nM | EC50 (DRD2 F1103.28L; DRD2 F1103.28L (b138 head prints DRD2 F1063.28L)): 1.24 ± 0.75 nM | Emax (DRD2 F1103.28L; read-out: Emax relative to quinpirole response, DRD2 F1103.28L): 56.4% | EC50 (DRD2 (D2 long receptor); agonist, Gαi/o-mediated cAMP inhibition, read-out: EC50 ± SEM): 0.45 ± 0.05 nM | G protein agonist activity (DRD2 (D2 long receptor); cAMP inhibition): full agonist | Emax (DRD2 (D2 long receptor); HEK-293T, read-out: Emax relative to quinpirole response, cAMP inhibition): 94.5% | Fig_S10k dose-response, drug alone (agonist mode), β-arrestin2 recruitment (5HT2A; Log[Drug] -6.52): -0.1908 | Fig_S10k dose-response, drug alone (agonist mode), β-arrestin2 recruitment (5HT2A; Log[Drug] -7): 0.697 and 0.4035 and 0.09538 and 0.6532 and -1.18 and 3.874 and 0.7119 and 4.575 and 2.4436 | Fig_S10k dose-response, drug alone (agonist mode), β-arrestin2 recruitment (5HT2A; Log[Drug] -7.52): 0.4035 and -0.7777 and -0.1834 and -1.703 and -0.8871 and -1.1926 and 2.795 and 3.208 and 1.294
